Results published in ChEMBL document CHEMBL5257048, “Embellicines C-E: Macrocyclic Alkaloids with a Cyclopenta[b]fluorene Ring System from the Fungus Sarocladium sp” (J Nat Prod, 2023).

Legend:
Type in all cases: functional, cell-based
MDA-MB-231 = assay: Cytotoxicity against human MDA-MB-231 cells assessed as inhibition of cell growth incubated for 72 hrs by MTT assay; details: MDA-MB-231, 72 h
OVCAR-3 = assay: Cytotoxicity against human OVCAR-3 cells assessed as inhibition of cell growth incubated for 72 hrs by MTT assay; details: OVCAR-3, 72 h
MDA-MB-435 = assay: Cytotoxicity against human MDA-MB-435 cells assessed as inhibition of cell growth incubated for 72 hrs by MTT assay; details: MDA-MB-435, 72 h

Row | SMILES | IC50 (MDA-MB-231) | IC50 (OVCAR-3) | IC50 (MDA-MB-435)
1 | CC1=C[C@]2(C)C(=C(C)[C@@H]3[C@@H]4C[C@H](C)C[C@H](C)[C@H]4[C@H]4Oc5ccc(cc5)C[C@@]5(O)C=C(C(=O)N5)C(=O)[C@H]2[C@@H]43)[C@@H]1C | 0.4 µM | 1.6 µM | 1.5 µM
2 | CC1=C[C@]2(C)C(=C(C)[C@@H]3[C@@H]4C[C@H](C)C[C@H](C)[C@H]4[C@H]4Oc5ccc(cc5)C[C@]5(O)NC(=O)[C@]6(O[C@H]65)C(=O)[C@H]2[C@@H]43)[C@@H]1C | 4.8 µM | 21 µM | 17 µM
3 | CO[C@@H]1/C2=C(\O)[C@H]3[C@H]4[C@H](Oc5ccc(cc5)C[C@]1(O)NC2=O)[C@H]1[C@@H](C[C@H](C)C[C@@H]1C)[C@H]4C(C)=C1[C@H](C)C(C)=C[C@]13C | 0.4 µM | 1 µM | 1.8 µM
4 | CC1=C[C@]2(C)C(=C(C)[C@@H]3[C@@H]4C[C@H](C)C[C@H](C)[C@H]4[C@H]4Oc5ccc(cc5)CC(=O)[C@@H]5O[C@@]5(C(N)=O)C(=O)[C@H]2[C@@H]43)[C@@H]1C | 3.2 µM | 24 µM | 18 µM
5 | CC(=O)O[C@]12Cc3ccc(cc3)O[C@@H]3[C@H]4[C@@H](C[C@H](C)C[C@@H]4C)[C@H]4C(C)=C5[C@H](C)C(C)=C[C@@]5(C)[C@@H](C(=O)[C@@]5(O[C@H]51)C(=O)N2)[C@@H]34 | 4.4 µM | 20 µM | 20 µM
